From US20240208997A1, “CYCLIC BENZIMIDAZOLE DERIVATIVES AS CGAS INHIBITORS” (Boehringer Ingelheim International GmbH, priority 2022, published 2024)

Legend:
[1] = tested on: IFN induction in cGAMP-stimulated THP1 cells; test: cGAMP stimulated counter cell assay in THP1-Dual cells (THP1(cGAMP) IC50); format: cell-based, human; conditions: Table 1; for IC50: Homo sapiens, THP-1, counter assay, 10 μM cGAMP stimulation, read-out: THP(cGAMP) IC50; for Ratio THP(cGAMP) IC50/THP(vir) IC50: selectivity for cGAS-inhibition
Excerpt: (§1) 6.2 Method: Human cGAS Cell Assay and cGAMP Stimulated Counter Cell Assay (THP1(vir) IC50 and THP1(cGAMP) IC50)
For the counter assay, cells were stimulated by cGAMP (SigmaAldrich #SML1232) to activate the identical pathway independent and directly downstream of cGAS (measurement of THP1(cGAMP) IC50).
(§2) Pathway activity was monitored by measuring the Lucia luciferase activity induced by either DNA stimulated cGAS enzyme activity (measurement of THP1(vir) IC50) or by cGAMP directly (measurement of THP1(cGAMP) IC50, counter assay).
(§3) Compounds were delivered in 10 mM DMSO solution, serially diluted and transferred to the 384 well assay plate (Greiner #781201) using an Echo acoustic dispenser. Typically, 8 concentrations were used with the highest concentration at 10 μM in the final assay volume followed by ^˜1:5 dilution steps. DMSO concentration was set to 1% in the final assay volume. The 384 well assay plate contained […] (column 1-22), and DMSO in column 23 and 24.
(§4) Cells, cultivated according to manufacturer conditions, were harvested by centrifugation at 300 g/10 min and were then resuspended and diluted to 1.66E5 cells/ml in fresh cell culture medium (RPMI 1640 (Gibco #A10491-01), 10% FCS (Gibco #10500), 1× GlutaMax (Gibco #35050-061), 1× Pen/Strep solution (Gibco #15140-122), 100 μg/ml Normocin (InvivoGen #ant-nr), 100 μg/ml Zeocin (InvivoGen #ant-zn), 10 μg/ml Blasticidin S (Life Technologies #A11139-03)). The baculovirus solution was then added 1:200 (have varied according to virus batch) to the cells (measurement of THP1(vir) IC50).
(§5) 30 μL of the cell/virus-mix were added to each well of the compound plate from column 1-23 via MultiDrop Combi dispenser (5000 cells/well). In column 24, 30 μl/5000 cells/well without virus were added as a low control.
(§6) The plates were then incubated for 18 h at 37° C. in a humidified incubator.
(§7) Following that, 15 μL of QuantiLuc detection reagent (InvivoGen #rep-qlcg5) were added to each well using a MultiDrop Combi. Measurement was done immediately after the addition using an EnVision reader (US-luminescence read-mode).
(§8) Data Evaluation and Calculation:
(§9) For data evaluation and calculation, the measurement of the low control was set as 0% control and the measurement of the high control was set as 100% control. The IC50 values were calculated using the standard 4 parameter logistic regression formula. Calculation: [y=(a−d)/(1+(x/c)^b)+d], a=low value, d=high value; x=conc M; c=IC50 M; b=slope

[2] = tested on: IFN induction in dsDNA-stimulated human whole blood; test: Human whole blood assay (hWB IC50), dsDNA stimulated, IFNα2α production; format: cell-based; conditions: Table 1
Procedure: 6.3 Method: Human Whole Blood Assay (Human WB IC50)
For the detection of cellular cGAS activity human whole blood was stimulated by transfection with double stranded DNA. Pathway activity was monitored by measuring the IFNα2α production.
Compounds were delivered as 10 mM DMSO solution and serially diluted and transferred to the 96-well cell culture plate (Corning #3595), prefilled with 20 μl OptiMEM (Gibco, #11058-021) in each well, using an Echo acoustic dispenser. Typically, 8 concentrations were used with the highest concentration at 10 μM in the final assay volume followed by ^˜1:5 dilution steps. DMSO concentration was set to 0.1% in the final assay volume. The 96-well assay plate contained 10 test compounds, and DMSO in control wells.
Collection of human whole blood from 3 or more healthy donors (male or female, no medication for 7 days except contraceptive and thyroxine) as Na-Citrate blood (e.g. 3.8% in Monovettes from Sarstedt) was conducted in parallel. Whole blood was kept at room temperature for a maximum of 3 hours after collection until use in the assay. 160 μl of the whole blood samples was transferred to each well of the 96-well assay plates filled with compound/OptiMEM. All assay plates were prepared as duplicates with blood from different donors. Blood plates were kept at room temperature for 60 minutes and continuous shaking with 450 rpm, covered with the lid, but not sealed.
20 μl OptiMEM and 9.6:1 Fugene was added to all low control wells.
After covering assay plates with aera seals and the lid, blood plates were kept at room temperature for 30 minutes and continuous shaking with 450 rpm, followed by an overnight incubation of 22 h at 37° C. in the incubator, without shaking.
For the detection of IFNα-2α in human plasma, the biotinylated capture antibody (Antibody set IFNA2, Meso Scale Diagnostics #B21VH-3, including coating and capture antibody) was diluted 1:17.5 in Diluent 100 (Meso Scale Diagnostics #R50AA-4), according to the manufacturer's directions. U-Plex MSD GOLD 96-well Small Spot Strepavidin SECTOR Plates (Meso Scale Diagnostics #L45SA-5) were coated with 25 μl diluted capture antibody. Coated plates were incubated for 60 min at room temperature under continuous shaking at 700 rpm. MSD IFNα-2α plates were washed three times with 150 μl wash buffer (1× HBSS, 0.05% Tween).
After blocking the plates with 100 μl block solution/well (1× HBSS with 0.2% Tween, 2% BSA) for 60 min at room temperature and continuous shaking at 700 rpm, plates were emptied as dry as possible by dumping just before continuing with the human plasma.
Whole Blood assay plates were centrifuged at 1600 rpm for 10 minutes. 25 μl of supernatant was transferred with a pipetting robot from each whole blood plate to the corresponding IFNα-2α plate. Plates were sealed with microplate seals and kept at room temperature again under continuous shaking at 700 rpm for two hours.
Next MSD IFNα-2α plates were washed three times with 150 μl wash buffer (1× HBSS, 0.05% Tween), before adding 25 μl MSD SULFO-TAG IFNα-2α Antibody solution (1:100 diluted in Diluent 3 (Meso Scale Diagnostics #R50AP-2) to each well of the plates.
Afterwards plates were sealed with microplate seals and kept at room temperature again under continuous shaking at 700 rpm for two hours. Finally, MSD IFNα-2α plates were washed three times with 150 μl wash buffer (1× HBSS, 0.05% Tween). 150 μl 2× Read buffer was added to each well and plates were immediately measured with the MSD Sector S600 Reader using the vendor barcode.
as §8
For data evaluation and calculation, % control calculation of each well was based on the mean of high (DNA stimulated control) and mean of low (unstimulated control) controls by using the following formula:
[counts(sample)−counts(low))/(counts(high)−counts(low))]*100
The IC50-values were calculated using the standard 4 parameter logistic regression formula. […]

[3] = tested on: IFN induction in virus-stimulated THP1 cells; test: Human cGAS cell assay, virus-stimulated THP1-Dual cells (THP1(vir) IC50); format: cell-based; conditions: THP-1, 18 h, Table 1, baculovirus-stimulated THP1-Dual cells, Lucia luciferase, 18 h, read-out: THP(vir) IC50
Excerpt: as §1
THP1-Dual™ cells (InvivoGen #thpd-nfis) expressing IRF dependent Lucia luciferase reporter were used as basis for both assays. For the detection of cellular cGAS activity cells were stimulated by a baculovirus (pFastbac-1, Invitrogen, no coding insert) infection that delivers the cGAS enzyme stimulating double-stranded DNA (measurement of THP1(vir) IC50).
as §2, §3, §4, §5, §6, §7, §8, §9

SMILES	IC50 [1]	Ratio THP(cGAMP) IC50/THP(vir) IC50 [1]	IC50 [2]	IC50 [3]
C[C@H]1CN2CC[C@@H]1n1c(nc3ccccc31)O[C@H]1C[C@@H](C(=O)O)N(C1)c1nc(nc3c1oc1ccccc13)CCOCCOC2=O (mixture of isomers) [Example 12.01]	> 10 µM	>42	0.225 µM	0.24 µM
C[C@H]1CN2CC[C@@H]1n1c(nc3ccccc31)O[C@H]1C[C@@H](C(=O)O)N(C1)c1nc(nc3c1oc1ccccc13)CCCCCCC2=O (racemic) [Example 1.24]	11 µM	65	0.086 µM	0.17 µM
C[C@H]1CN2CC[C@@H]1n1c(nc3cccc(Cl)c31)O[C@H]1C[C@@H](C(=O)O)N(C1)c1nc(nc3c1oc1ccccc13)CC(=O)NCCCC2=O (racemic) [Example 2.01, (12S,14S)-4-chloro-37-methyl-29,34-dioxo-11,18-dioxa-2,9,15,26,30,35,40-heptaazaoctacyclo[33.2.2.1^12,15.1^16,27.0^2,10.0^3,8.0^17,25.0^19,24]hentetraconta-3,5,7,9,16(40),17(25),19(24),20,22,26-decaene-14-carboxylic acid]	> 10 µM	>948	0.035 µM	0.011 µM
C[C@@H]1CN2CC[C@H]1n1c(nc3cc(Cl)ccc31)O[C@H]1C[C@@H](C(=O)O)N(C1)c1nc(nc3c1oc1ccccc13)CCOCCCC2=O [Example 1.01]	> 10 µM	>253	0.087 µM	0.039 µM
C[C@H]1CN2CC[C@@H]1n1c(nc3cc(Cl)ccc31)O[C@H]1C[C@@H](C(=O)O)N(C1)c1nc(nc3c1oc1ccccc13)CCOCCCC2=O [Example 1.02]	> 10 µM	>3557	0.005 µM	0.0028 µM
O=C(O)[C@@H]1C[C@H]2CN1c1nc(nc3c1oc1ccccc13)CCOCCCC(=O)N1CCC(CC1)n1c(nc3cc(F)ccc31)O2 [Example 1.03]	> 10 µM	>90	0.036 µM	0.11 µM
O=C(O)[C@@H]1C[C@H]2CN1c1nc(nc3c1oc1ccccc13)CCOCCCC(=O)N1CCC(CC1)n1c(nc3ccc(F)cc31)O2 [Example 1.04]	> 10 µM	>229	0.044 µM	0.044 µM
C[C@H]1CN2CC[C@@H]1n1c(nc3ccccc31)O[C@H]1C[C@@H](C(=O)O)N(C1)c1nc(nc3c1oc1ccccc13)CCOCCCC2=O [Example 1.05]	> 10 µM	>3448	0.005 µM	0.0029 µM
C[C@H]1CN2CC[C@@H]1n1c(nc3ccc(Cl)cc31)O[C@H]1C[C@@H](C(=O)O)N(C1)c1nc(nc3c1oc1ccccc13)CCOCCCC2=O [Example 1.06]	> 10 µM	>2417	0.015 µM	0.0041 µM
